Molecules are shown by their SMILES. Values after ≈ are worked out from the molar mass of the structure shown.

For this series the following is noted: buffer; pH 7.4; 200.0 µM.
`CCCn1nc(C(=O)N2CCN(c3ccccn3)CC2)c2ccccc2c1=O` displayed a solubility (kinetic) above 56.6 µg/mL. The result for `CCOc1ccc(Oc2ccc(Cl)cc2N)cc1.Cl` reads 4.5 µg/mL; that for `CN(C)CCN(C(=O)c1ccc2ccccc2c1)c1nc2ccc(Br)cc2s1.Cl`, 3.6 µg/mL; that for `Cc1cc(-c2onc(C)c2C(N)=O)no1`, above 31.1 µg/mL. The result for `COc1ccccc1N1C(=O)CSC1=S` reads 3.4 µg/mL (≈ 14.2 µM); that for `O=C(Nc1ccc(Cl)c(Cl)c1)Nc1ccon1`, 1.6 µg/mL (≈ 5.88 µM).

Consider `O=C(Nc1ncccn1)c1ccc([N+](=O)[O-])cc1[N+](=O)[O-]`, for which the kinetic solubility worked out at 38.7 µg/mL (≈ 134 µM). The figure for `CC1CCN(C(=O)CNC(=O)c2cccc(OC(F)F)c2)CC1` is above 49 µg/mL; for `Fc1cc(Cl)c(OCc2noc(-c3ccsc3)n2)c(Cl)c1` it is 0.5 µg/mL (≈ 1.45 µM). The result for `Cc1nc(N2CCOCC2)nc(N2CCCCC2C)c1[N+](=O)[O-]` (stereo unspecified) reads 12.2 µg/mL (≈ 38 µM); that for `Cc1ccc(NC(=O)CN2CCOCC2)cc1Cl`, above 40.3 µg/mL. The result for `O=C(COC(=O)C1COc2ccccc2O1)Nc1ccccc1OC(F)F` (stereo unspecified) reads above 56.9 µg/mL; that for `CS(=O)(=O)N1CCC(C(=O)Nc2ccc(F)cc2)CC1`, above 45.1 µg/mL.

In turn, `Cc1cccc(-c2noc(CCCC(=O)NCC3CCCO3)n2)c1` (stereo unspecified) had a solubility (kinetic) above 49.4 µg/mL. Take `Cc1onc(-c2ccc(Cl)cc2Cl)c1C(=O)/C=C/N(C)C`: the kinetic solubility is above 48.8 µg/mL. The result for `COc1ccc(NC(=O)CN2CCc3ccccc3C2)cc1OC` reads above 49 µg/mL. The result for `COc1ccc(NC(=S)NC(=O)Cc2ccccc2)cc1` reads 19.2 µg/mL (≈ 63.9 µM).

Compound `COc1ccc(C2C(C(=O)O)c3ccccc3C(=O)N2Cc2ccco2)cc1` (stereo unspecified) gave a solubility (kinetic) above 56.6 µg/mL. The result for `CCCCON1C(=O)c2cccc3cccc(c23)C1=O` reads 8.8 µg/mL (≈ 32.7 µM); that for `CCOC(=O)c1cnc(Nc2ccccc2)nc1C(F)(F)F`, 2.1 µg/mL (≈ 6.75 µM); that for `Cc1ccc(OCCNC(=O)c2ccc3c(c2)OCO3)cc1`, 14.4 µg/mL (≈ 48.1 µM).

On to `COc1ccc(Cl)cc1S(=O)(=O)NCCCn1ccnc1`, for which the solubility (kinetic) stood at 48.6 µg/mL (≈ 147 µM). The result for `CC(NC(=O)C12CC3CC(C)(CC(C)(C3)C1)C2)c1ccncc1` (stereo unspecified) reads 41.9 µg/mL (≈ 134 µM).

Regarding `COc1ccc(/C=C/C(=O)NC2CCS(=O)(=O)C2)cc1` (stereo unspecified), the kinetic solubility is above 44.3 µg/mL. The figure for `N=C1SC(CC(=O)Nc2ccc([N+](=O)[O-])cc2)C(=O)N1c1ccccc1` (stereo unspecified) is 1 µg/mL (≈ 2.7 µM); for `O=C(CCC1CCN(Cc2ccccc2O)CC1)NC1CC1` it is 42.6 µg/mL (≈ 141 µM). The result for `CCC(=O)Oc1ccc(C2NC(=O)c3ccccc3O2)cc1OC` (stereo unspecified) reads 28.5 µg/mL (≈ 87.1 µM). The figure for `CC(=O)N1CCN(CC(=O)Nc2cc([N+](=O)[O-])ccc2Cl)CC1` is 43.4 µg/mL (≈ 127 µM); for `Br.O=C(Cn1c(NCCO)nc2ccccc21)c1ccc(F)cc1` it is 22.4 µg/mL.

As to `O=C1NC(=O)N(c2ccc(F)cc2)C(=O)/C1=C/c1ccsc1`, the kinetic solubility was above 47.4 µg/mL. The figure for `O=C(O)C(Cc1ccccc1)N1C(=O)CCC1=O` (stereo unspecified) is above 37.1 µg/mL.

`N#C/C(=C/c1ccncc1)c1nc2ccccc2c(=O)[nH]1`: the solubility (kinetic) is above 41.1 µg/mL.

The compound `CC(C)(C)N/C=C(\C#N)S(=O)(=O)c1ccc(Br)cc1` gave a kinetic solubility of 7.7 µg/mL (≈ 22.4 µM).

As to `Cc1ccc(S(=O)(=O)N2CCOCC2)cc1C(=O)N1CC(C)CC(C)C1` (stereo unspecified), the kinetic solubility came to 35.9 µg/mL (≈ 94.3 µM). The result for `COc1ccc(NS(=O)(=O)c2ccc(O)c(NS(=O)(=O)c3ccc(NC(C)=O)cc3)c2)cc1` reads above 73.7 µg/mL; that for `C=CCNC(=O)c1ccc(-c2nc3ccccc3nc2-c2ccccc2)cc1`, 11.7 µg/mL (≈ 32 µM); that for `C=CCC(CC=C)(C(N)=O)c1ccccc1`, 31.6 µg/mL (≈ 147 µM). The result for `CCOC(=O)C1(Cc2ccccc2)CCCN(CCO)C1` (stereo unspecified) reads above 43.7 µg/mL; that for `CCOC(=O)c1csc(NC(=O)c2ccc(OCC)cc2)n1`, 0.8 µg/mL (≈ 2.5 µM); that for `Cc1ccc(NC(=O)CN2C(=O)c3ccccc3S2(=O)=O)cc1C`, 5.9 µg/mL (≈ 17.1 µM).

Take `CC(=O)c1c(C)[nH]c(C(=O)CN2CCN(S(=O)(=O)c3ccccc3F)CC2)c1C`: the solubility (kinetic) is 6.4 µg/mL (≈ 15.2 µM).

For the compound `CCOc1nc(-c2ccccc2)ncc1Oc1ccccc1`, the kinetic solubility is below 0.3 µg/mL. The figure for `Cc1cc(C=C2C(=O)NC(=O)NC2=O)c(C)n1-c1ccncc1` is above 46.5 µg/mL; for `O=C(NC(=S)Nc1ccc2[nH]c(=O)[nH]c2c1)c1ccccc1F` it is 1.1 µg/mL (≈ 3.33 µM). The figure for `CCCCc1nnc(SCC(=O)NC2CCCCC2)n1C` is above 46.6 µg/mL; for `c1ccn2cc(-c3ccc4c(c3)OCCO4)nc2c1` it is above 37.8 µg/mL; for `Cl.O=C(NCCCn1ccnc1)c1ccccc1F` it is above 42.6 µg/mL. Consider `CCOc1ccccc1-n1cnc(C#N)c1N`, for which the solubility (kinetic) is above 34.2 µg/mL. The figure for `CCc1c(O)nc(SC2CC(=O)N(c3ccc(F)c(Cl)c3)C2=O)[nH]c1=O` (stereo unspecified) is 55.7 µg/mL (≈ 140 µM); for `COc1ncnc2c1ncn2CC1COC(C)(C)O1` (stereo unspecified) it is 34.9 µg/mL (≈ 132 µM). For `Cc1cc(C)nc(NC(=S)NC(=O)c2ccccc2F)n1`, the kinetic solubility was determined as 8.1 µg/mL (≈ 26.6 µM).
